# Assays:
# [1] = target: Death-associated protein kinase 1 (Homo sapiens) (UniProt P53355); experiment: Inhibition of recombinant human N-terminal GST-tagged DAPK1 (1 to 363 residues) expressed in baculovirus expression system using ZIPtide as substrate at 0.1 uM incubated for 60 mins by Adapta assay relative to control
# [2] = target: T1, Dual specificity protein kinase TTK (Homo sapiens) (UniProt P33981); experiment: Inhibition of tracer 236 binding to recombinant human GST-tagged full length TTK expressed in baculovirus expression system at 0.1 uM incubated for 60 mins by Lanthascreen assay relative to control
# T1 sequence (whole entry): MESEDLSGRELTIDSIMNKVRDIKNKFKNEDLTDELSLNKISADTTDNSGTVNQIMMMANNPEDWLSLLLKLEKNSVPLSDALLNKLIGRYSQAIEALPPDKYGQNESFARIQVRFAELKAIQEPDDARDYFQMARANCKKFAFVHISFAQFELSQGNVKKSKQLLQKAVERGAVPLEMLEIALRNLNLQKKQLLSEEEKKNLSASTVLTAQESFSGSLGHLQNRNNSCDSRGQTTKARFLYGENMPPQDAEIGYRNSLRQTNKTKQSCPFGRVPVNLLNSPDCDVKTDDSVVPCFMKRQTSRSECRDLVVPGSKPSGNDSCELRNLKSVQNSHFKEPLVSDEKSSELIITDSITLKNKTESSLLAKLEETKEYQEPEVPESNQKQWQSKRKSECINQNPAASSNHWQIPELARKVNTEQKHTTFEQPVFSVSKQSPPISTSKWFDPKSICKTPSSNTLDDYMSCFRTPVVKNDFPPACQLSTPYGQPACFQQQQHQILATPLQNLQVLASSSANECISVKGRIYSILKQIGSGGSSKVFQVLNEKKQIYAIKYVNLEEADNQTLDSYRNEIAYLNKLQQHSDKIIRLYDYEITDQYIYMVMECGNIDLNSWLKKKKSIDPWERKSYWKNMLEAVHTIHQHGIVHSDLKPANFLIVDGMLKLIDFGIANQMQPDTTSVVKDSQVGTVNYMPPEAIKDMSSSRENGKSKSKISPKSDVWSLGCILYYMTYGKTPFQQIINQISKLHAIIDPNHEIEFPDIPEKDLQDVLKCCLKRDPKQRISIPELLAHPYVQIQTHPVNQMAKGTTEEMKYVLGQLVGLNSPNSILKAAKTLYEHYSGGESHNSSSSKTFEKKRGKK
# [3] = target: Ribosomal protein S6 kinase alpha-5 (Homo sapiens) (UniProt O75582); experiment: Inhibition of recombinant human GST-tagged full length MSK1 expressed in baculovirus expression system using Ser/Thr 01 as substrate at 0.1 uM incubated for 60 mins by Z'-lyte assay relative to control
# Ribosomal protein S6 kinase alpha-5 (Homo sapiens), sequence (O75582 whole entry, looked up): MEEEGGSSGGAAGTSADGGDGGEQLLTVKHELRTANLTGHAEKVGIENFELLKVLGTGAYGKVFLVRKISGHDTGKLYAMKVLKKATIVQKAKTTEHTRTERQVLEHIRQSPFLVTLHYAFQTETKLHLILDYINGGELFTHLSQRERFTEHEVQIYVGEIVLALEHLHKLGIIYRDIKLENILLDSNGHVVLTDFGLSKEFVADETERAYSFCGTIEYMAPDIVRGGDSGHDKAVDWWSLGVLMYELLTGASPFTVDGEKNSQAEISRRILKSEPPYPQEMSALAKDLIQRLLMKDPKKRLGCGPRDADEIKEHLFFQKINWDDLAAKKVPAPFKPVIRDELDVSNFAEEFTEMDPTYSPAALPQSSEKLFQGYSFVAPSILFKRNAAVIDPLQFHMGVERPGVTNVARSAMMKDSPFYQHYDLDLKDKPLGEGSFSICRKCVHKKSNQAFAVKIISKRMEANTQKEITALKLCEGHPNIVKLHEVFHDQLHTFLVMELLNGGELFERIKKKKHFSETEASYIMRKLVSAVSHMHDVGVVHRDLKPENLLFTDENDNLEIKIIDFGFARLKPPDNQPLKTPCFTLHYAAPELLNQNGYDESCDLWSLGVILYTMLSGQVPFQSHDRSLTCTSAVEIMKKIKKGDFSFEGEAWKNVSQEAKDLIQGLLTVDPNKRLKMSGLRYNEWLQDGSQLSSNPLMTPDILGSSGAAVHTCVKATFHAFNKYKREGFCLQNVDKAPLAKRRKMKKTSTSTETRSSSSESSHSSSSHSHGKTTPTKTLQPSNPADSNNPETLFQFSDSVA
# [4] = target: T2, cGMP-dependent protein kinase 2 (Homo sapiens) (UniProt Q13237); experiment: Inhibition of recombinant human GST-tagged full length PKG2 expressed in baculovirus expression system using Ser/Thr 01 as substrate at 0.1 uM incubated for 60 mins by Z'-Lyte assay relative to control
# T2 sequence (whole entry): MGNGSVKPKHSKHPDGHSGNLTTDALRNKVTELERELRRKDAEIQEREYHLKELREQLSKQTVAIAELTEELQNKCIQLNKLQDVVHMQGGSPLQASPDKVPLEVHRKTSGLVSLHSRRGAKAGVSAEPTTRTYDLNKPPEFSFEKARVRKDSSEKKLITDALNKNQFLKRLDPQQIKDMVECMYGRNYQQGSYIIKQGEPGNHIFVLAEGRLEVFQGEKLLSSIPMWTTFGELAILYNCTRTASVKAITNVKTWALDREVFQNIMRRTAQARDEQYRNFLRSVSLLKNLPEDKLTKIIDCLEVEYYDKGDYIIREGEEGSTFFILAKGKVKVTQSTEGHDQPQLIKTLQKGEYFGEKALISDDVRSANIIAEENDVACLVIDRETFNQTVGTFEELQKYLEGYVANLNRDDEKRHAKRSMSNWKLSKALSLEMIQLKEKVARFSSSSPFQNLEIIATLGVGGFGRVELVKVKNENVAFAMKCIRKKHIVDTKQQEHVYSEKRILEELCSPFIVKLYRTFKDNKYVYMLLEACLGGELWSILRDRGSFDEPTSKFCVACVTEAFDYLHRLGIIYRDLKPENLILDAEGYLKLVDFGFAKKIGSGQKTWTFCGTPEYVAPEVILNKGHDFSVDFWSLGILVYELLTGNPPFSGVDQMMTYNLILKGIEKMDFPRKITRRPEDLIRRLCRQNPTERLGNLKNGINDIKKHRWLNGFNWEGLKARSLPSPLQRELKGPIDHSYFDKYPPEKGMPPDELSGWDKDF
# [5] = target: T3, Interleukin-1 receptor-associated kinase 4 (Homo sapiens) (UniProt Q9NWZ3); experiment: Inhibition of recombinant human His-tagged full length IRAK4 expressed in baculovirus expression system using Ser/Thr 07 as substrate at 0.1 uM incubated for 60 mins by Z'-Lyte assay relative to control
# T3 sequence (whole entry): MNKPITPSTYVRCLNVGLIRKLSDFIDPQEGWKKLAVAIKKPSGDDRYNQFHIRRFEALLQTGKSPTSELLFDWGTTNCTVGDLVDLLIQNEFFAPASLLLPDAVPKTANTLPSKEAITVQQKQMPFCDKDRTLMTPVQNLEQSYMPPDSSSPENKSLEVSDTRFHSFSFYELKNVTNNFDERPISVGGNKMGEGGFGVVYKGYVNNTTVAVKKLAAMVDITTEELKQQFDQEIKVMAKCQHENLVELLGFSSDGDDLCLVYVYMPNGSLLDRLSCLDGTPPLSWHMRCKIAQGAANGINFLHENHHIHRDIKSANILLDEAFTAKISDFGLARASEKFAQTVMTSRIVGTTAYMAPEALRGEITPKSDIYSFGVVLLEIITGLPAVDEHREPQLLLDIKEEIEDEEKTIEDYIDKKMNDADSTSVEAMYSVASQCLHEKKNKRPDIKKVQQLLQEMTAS
# [6] = target: Fibroblast growth factor receptor 1 (Homo sapiens) (UniProt P11362); experiment: Inhibition of recombinant human His-tagged FGFR1 (308 to 731 residues) expressed in baculovirus expression system using Tyr 01 as substrate at 0.1 uM incubated for 60 mins by Z'-Lyte assay relative to control
# Fibroblast growth factor receptor 1 (Homo sapiens), sequence (P11362 22-822 limits assumed): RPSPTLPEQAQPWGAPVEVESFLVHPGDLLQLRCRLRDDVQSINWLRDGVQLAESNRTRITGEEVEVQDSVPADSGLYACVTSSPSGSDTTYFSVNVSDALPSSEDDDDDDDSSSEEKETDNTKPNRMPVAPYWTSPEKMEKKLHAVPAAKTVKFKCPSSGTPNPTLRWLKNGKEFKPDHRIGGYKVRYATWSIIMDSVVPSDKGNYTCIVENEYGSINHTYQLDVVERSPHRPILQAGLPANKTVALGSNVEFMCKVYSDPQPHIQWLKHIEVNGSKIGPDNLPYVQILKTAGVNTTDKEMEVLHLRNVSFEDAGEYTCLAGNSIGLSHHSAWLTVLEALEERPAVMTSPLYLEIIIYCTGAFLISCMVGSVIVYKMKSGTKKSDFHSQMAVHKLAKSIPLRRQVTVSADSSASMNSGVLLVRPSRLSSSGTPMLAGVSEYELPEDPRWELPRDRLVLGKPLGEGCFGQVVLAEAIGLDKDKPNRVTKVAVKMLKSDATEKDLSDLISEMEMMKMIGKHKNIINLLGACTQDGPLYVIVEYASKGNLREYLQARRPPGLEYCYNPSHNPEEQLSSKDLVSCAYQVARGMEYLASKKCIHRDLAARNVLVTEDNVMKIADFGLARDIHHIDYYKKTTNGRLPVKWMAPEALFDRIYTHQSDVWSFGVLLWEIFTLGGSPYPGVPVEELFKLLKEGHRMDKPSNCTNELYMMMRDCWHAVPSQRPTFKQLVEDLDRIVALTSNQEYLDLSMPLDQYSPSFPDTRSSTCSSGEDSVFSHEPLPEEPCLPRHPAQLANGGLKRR
# [7] = target: Tyrosine-protein kinase CSK (Homo sapiens) (UniProt P41240); experiment: Inhibition of recombinant human GST-tagged full length CSK expressed in Escherichia coli expression system using Tyr 02 as substrate at 0.1 uM incubated for 60 mins by Z'-Lyte assay relative to control
# Tyrosine-protein kinase CSK (Homo sapiens), sequence (P41240 2-450 limits assumed): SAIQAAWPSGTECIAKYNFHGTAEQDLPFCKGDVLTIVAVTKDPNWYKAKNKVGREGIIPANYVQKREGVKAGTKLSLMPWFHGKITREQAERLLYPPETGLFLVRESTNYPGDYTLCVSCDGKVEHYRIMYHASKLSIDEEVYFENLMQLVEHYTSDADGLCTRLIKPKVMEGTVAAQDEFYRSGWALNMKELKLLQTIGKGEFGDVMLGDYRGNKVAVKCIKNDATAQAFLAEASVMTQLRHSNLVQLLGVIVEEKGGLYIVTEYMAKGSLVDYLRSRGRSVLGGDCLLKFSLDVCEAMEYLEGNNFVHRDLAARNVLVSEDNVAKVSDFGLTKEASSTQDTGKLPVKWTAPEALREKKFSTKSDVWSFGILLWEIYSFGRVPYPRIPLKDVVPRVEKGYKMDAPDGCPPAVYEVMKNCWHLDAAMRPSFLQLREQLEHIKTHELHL
# [8] = target: Dual specificity mitogen-activated protein kinase kinase 1 (Homo sapiens) (UniProt Q02750); experiment: Inhibition of recombinant human His-tagged full length MEK1 expressed in baculovirus expression system using Ser/Thr 03 as substrate at 0.1 uM incubated for 60 mins by Z'-lyte assay relative to control
# Dual specificity mitogen-activated protein kinase kinase 1 (Homo sapiens), sequence (Q02750 whole entry): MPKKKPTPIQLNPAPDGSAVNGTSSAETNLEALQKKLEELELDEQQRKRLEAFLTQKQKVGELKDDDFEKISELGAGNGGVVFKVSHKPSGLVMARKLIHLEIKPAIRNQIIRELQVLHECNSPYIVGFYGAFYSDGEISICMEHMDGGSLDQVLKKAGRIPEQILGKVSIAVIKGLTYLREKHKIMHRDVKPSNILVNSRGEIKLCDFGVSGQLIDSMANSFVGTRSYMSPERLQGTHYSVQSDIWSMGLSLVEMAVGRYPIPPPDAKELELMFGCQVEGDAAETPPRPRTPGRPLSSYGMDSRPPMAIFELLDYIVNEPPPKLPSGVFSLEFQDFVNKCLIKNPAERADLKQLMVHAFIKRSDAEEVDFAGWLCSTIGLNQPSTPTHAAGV
# [9] = in vitro; conditions: dog, MDCK
# Description: Efflux ratio of apparent permeability basolateral to apical over apical to basolateral side in MDCK cells at 10 uM incubated upto 180 mins by LC/MS-MS analysis
# Death-associated protein kinase 1 (Homo sapiens), sequence (P53355 whole entry, looked up, the tested form may be a part): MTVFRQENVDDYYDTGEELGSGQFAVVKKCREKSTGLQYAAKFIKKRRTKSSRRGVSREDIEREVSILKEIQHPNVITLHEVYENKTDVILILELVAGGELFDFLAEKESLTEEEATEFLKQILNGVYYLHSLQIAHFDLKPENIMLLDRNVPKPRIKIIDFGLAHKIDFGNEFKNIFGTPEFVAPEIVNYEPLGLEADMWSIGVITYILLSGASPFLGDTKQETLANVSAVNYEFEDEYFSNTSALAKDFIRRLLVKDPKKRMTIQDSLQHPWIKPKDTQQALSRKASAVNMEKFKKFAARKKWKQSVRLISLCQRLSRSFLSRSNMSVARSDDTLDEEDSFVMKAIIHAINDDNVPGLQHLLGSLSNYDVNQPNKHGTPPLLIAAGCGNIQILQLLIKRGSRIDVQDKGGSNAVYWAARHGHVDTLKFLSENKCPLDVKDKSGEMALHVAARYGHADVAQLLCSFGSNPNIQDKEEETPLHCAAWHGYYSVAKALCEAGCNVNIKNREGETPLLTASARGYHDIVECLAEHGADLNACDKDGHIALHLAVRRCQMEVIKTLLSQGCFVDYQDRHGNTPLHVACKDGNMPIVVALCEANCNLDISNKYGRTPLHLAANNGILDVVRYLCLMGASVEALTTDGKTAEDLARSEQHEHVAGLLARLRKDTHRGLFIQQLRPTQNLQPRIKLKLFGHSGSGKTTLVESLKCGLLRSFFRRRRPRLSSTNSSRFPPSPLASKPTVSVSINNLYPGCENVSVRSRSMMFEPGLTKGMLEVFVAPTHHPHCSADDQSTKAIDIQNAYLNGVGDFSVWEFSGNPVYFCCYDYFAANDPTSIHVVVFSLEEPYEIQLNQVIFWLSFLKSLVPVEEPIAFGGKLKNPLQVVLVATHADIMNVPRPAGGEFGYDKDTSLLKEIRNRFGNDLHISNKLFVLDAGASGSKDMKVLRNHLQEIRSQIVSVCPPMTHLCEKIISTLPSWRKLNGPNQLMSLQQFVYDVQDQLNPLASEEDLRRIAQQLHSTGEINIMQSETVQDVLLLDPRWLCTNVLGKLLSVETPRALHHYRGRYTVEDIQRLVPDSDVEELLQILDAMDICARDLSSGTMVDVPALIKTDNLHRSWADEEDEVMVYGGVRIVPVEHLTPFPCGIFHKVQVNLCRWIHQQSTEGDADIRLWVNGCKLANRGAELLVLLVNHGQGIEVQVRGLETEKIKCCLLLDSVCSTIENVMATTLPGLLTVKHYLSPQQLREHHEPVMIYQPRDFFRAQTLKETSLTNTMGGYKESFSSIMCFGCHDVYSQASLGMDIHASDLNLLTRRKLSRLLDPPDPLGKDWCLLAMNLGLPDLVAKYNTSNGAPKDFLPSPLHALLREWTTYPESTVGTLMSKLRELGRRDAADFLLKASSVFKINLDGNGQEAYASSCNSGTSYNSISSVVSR
SMILES,inhibition [1] [%],inhibition [2] [%],inhibition [3] [%],inhibition [4] [%],inhibition [5] [%],inhibition [6] [%],inhibition [7] [%],inhibition [8] [%],"efflux ratio at 3 h, 10 µM [9]"
Cn1cc(NC(=O)c2cnn3cccnc23)c(-c2cc(Cl)ccc2OC(F)F)n1,11,5,5,6,-4,6,2,0,0.55
O=C(Nc1c[nH]nc1-c1cc(Cl)ccc1OC(F)F)c1cnn2cccnc12,19,4,3,2,0,-1,-2,-8,1.1
O=C(Nc1c[nH]nc1-c1cc2ccccc2cc1OC(F)F)c1cnn2cccnc12,22,-3,-2,6,4,1,3,0,1.2

# — ChEMBL document CHEMBL4665643 (Bioorg Med Chem Lett, 2019)
